Measurements from US20240408114A1, “METHODS FOR PREVENTING AND TREATING ACUTE KIDNEY INJURY” (The Johns Hopkins University, priority 2021, published 2024).

Key:
kidney T cells [1] = assay: In vitro kidney T cell proliferation (CFSE) under hypoxia/reoxygenation; type: cell-based, mouse; conditions: 1 μM JHU083, hypoxia followed by reoxygenation
Procedure: Glutamine blocking effect on the kidney T cell proliferation was assessed with carboxyfluoroscein succinimidyl ester (CFSE) analysis. FACS sorted kidney T cells (CD45^+, TCR αβ^+) were cultured with media containing 1 μM JHU083 or vehicle and underwent hypoxia followed by reoxygenation.
Kidney T cells were isolated using FACS. Briefly, single-cell suspension of KMNCs was preincubated with anti-CD16/CD32 Fc block (S17011E, BioLegend) stained in Cell Staining Buffer (BioLegend) with fluorochrome-labeled antibodies: APC-Cy7 anti-CD45 (30-F11) and BV421 anti-TCRβ ([…]) from BioLegend. Live Dead Aqua (Thermo Fisher Scientific) was stained for viability assay. […] TCRβ^+ cells were sorted with FACSAria II Cell Sorter (BD Bioscience). Splenic T cells were isolated from single cells suspension of spleens using a T Cell Isolation Kit II (Miltenyi Biotec, North Rhine-Westphalia, Germany) according to the manufacturer's guideline.
48-well flat-bottom plates were coated with 5-μg/mL anti-CD3 in PBS and incubated at 4° C. overnight. Anti-CD3 coated plates were washed with PBS, and isolated cells were cultured in RPMI 1640 GlutaMAX (Thermo Fisher Scientific) supplemented with 10% FBS (Thermo Fisher Scientific), […] HEPES buffer (Thermo Fisher Scientific), 100-μM non-essential amino acid solution (Sigma-Aldrich), and 55-μM 2-mercaptoethanol (Sigma-Aldrich)±JHU083. […]

kidney T cells [2] = assay: T cells from post-ischemic kidneys, spectral flow cytometry; type: in vivo, mouse
Procedure: Mice were treated with 1.83 mg/kg of JHU083 or vehicle every other day via intraperitoneal injection and underwent bilateral IRI surgery on day 7 after the initial injection. […] Hollinger et al., 2020. Mice were followed up until 72 h after IRI, and T cells isolated from post-ischemic kidneys were studied (FIG. 14A).
KMNCs were isolated according to our previously described Percoll density gradient protocol. Ascon et al., 2006. Briefly, decapsulated kidneys were immersed and incubated in collagenase D (2 mg/mL; Sigma-Aldrich) solution for 30 min at 37° C. Samples were strained through 70 µm cell strainer (BD Bioscience, Franklin Lakes, NJ), washed, and resuspended in 40% Percoll (GE Healthcare, Chicago, IL) followed by gentle overlaying onto 80% Percoll. After centrifugation at 1,500 g for 30 min in brake off mode at room temperature, KMNCs were collected from interface between 40% and 80% Percoll. Spleens were strained through 40 µm cell strainer (BD Bioscience) and incubated with ammonium-chloride-potassium lysis buffer (Quality Biological, Gaithersburg, MD) for 3 min. Collected cells were washed and resuspended with Roswell Park Memorial Institute (RPMI) 1640 media (Thermo Fisher Scientific, Waltham, MA) containing 5% fetal bovine serum (FBS, Thermo Fisher Scientific). Cells were counted on hemocytometer using trypan blue exclusion under a microscope.
Cells were washed once with phosphate buffered saline (PBS) and stained with viability dye Zombie NIR Fixable Viability (BioLegend, San Diego, CA) for 15 min at room temperature. After washing with Cell Staining Buffer (BioLegend), cells were preincubated with anti-CD16/CD32 Fc receptor blocking antibody (S17011E, BioLegend) for 15 min to prevent nonspecific antibody binding. Subsequently, surface staining was performed in 50 μL of BD horizon™ Brilliant Stain buffer and surface staining antibody cocktail for 30 min at 4° C.: Pacific blue anti-CD44 (IM7, BioLegend), BV510 anti-CD8 (53-6.7, BioLegend), BV570 anti-CD45 (30-F11, BioLegend), BV605 anti-CD69 (H1.2F3, BioLegend), BV650 anti-NK1.1 (PK136, BioLegend), BV711 anti-PD1 (29F.1A12, BioLegend), BV785 anti-TCRβ (H57-597, BioLegend), PE-Cy5.5 anti-CD25 (PC61.5, Thermo Fisher Scientific), APC-R700 anti-CD62L (MEL-14, BD Bioscience), and APC-Fire810 anti-CD4 (GK1.5, BioLegend). Cells were fixed and permeabilized with Foxp3/Transcription Factor Staining kit (Thermo Fisher Scientific) for 30 min at room temperature and washed with permeabilization/wash buffer (Thermo Fisher Scientific). Intracellular staining was conducted in 50 μL of permeabilization/wash buffer with intracellular staining antibody cocktail for 45 min at room temperature: BV421 anti-Ki67 (16A8, BioLegend), Alexa Fluor 488 anti-CPT1a (8F6AE9, Abcam, Cambridge, UK), Alexa Fluor 532 anti-VDAC1 (20B12AF2, Abcam), PerCP-efluor 710 anti-FoxP3 (FJK-16S, Thermo Fisher Scientific), PE anti-GLUT1 (EPR3915, Abcam), Alexa Fluor 594 anti-pS6 (D68F8, Cell Signaling, Danvers, MA), PE-Cy5 anti-HKII (EPR20839, Abcam), PE-Cy7 anti-H3K27me3 (C36B11, Cell Signaling), and Alexa Fluor 647 anti-Tomm20 (EPR15581-54, Abcam). After staining, cells were washed with permeabilization/wash buffer then resuspended in Cell Staining Buffer. Samples were analyzed by 4-laser Aurora spectral flow cytometer (Cytek, Fremont, CA).
Glutamine antagonist, JHU083 was synthesized as previously described, Rais et al., 2016, and dissolved in 50 mM […] 4-(2-hydroxyethyl)-1-piperazineethanesulfonic acid (HEPES) buffered 0.9% saline. Aliquot stocks were stored at −80° C. and thawed right before injection. Before the IRI surgery or cisplatin injection, mice were administered 1.83 mg/kg JHU083 (equivalent to 1 mg/kg DON) or vehicle (50 mM HEPES buffered 0.9% saline) every other day via intraperitoneal injection. Following 4 consecutive dosages, mice underwent IRI surgery or cisplatin injection. The last additional dose was given at 24 h after IRI or cisplatin injection. […]

[3] = post-ischemic kidneys, vs vehicle

## CCOC(=O)[C@H](CCC(=O)C=[N+]=[N-])NC(=O)[C@@H](N)CC(C)C [JHU083]
Kidney T cells [1]
  cell numbers on day 3: significantly lower
Kidney T cells [1]; P<0.001
  proportion of undivided cells (CFSE): significantly higher proportion of undivided cells
Kidney T cells [2]; Example 1, FIG. 8, after ischemic AKI, vs vehicle control group
  expression of CD69, CD44, and Ki67 on kidney CD4+ and CD8+ T cells: reduced expression
Kidney T cells [2]; post-ischemic kidneys, vehicle 24.9±2.3, P=0.019
  CD69+ among kidney CD8+ T cells: 17.8±1.4%
Kidney T cells [2]; post-ischemic kidneys, vehicle 29.0±1.6, P<0.001
  CD62L+ among kidney CD4+ T cells: 42.8±2.2
Kidney T cells [2]; post-ischemic kidneys, vehicle 44.9±3.2, P<0.001
  CD62L+ among kidney CD8+ T cells: 63.6±2.8
Kidney T cells [2]; post-ischemic kidneys, vehicle 58.7±2.9, P=0.035
  Ki67+ among kidney CD4+ T cells: 50.6±2.1%
Kidney T cells [2]; post-ischemic kidneys, vehicle 60.6±2.5, P=0.005
  CD69+ among kidney DN T cells: 72.1±2.5%
Kidney T cells [2]; post-ischemic kidneys, vehicle 61.2±4.2, P=0.043
  Ki67+ among kidney CD8+ T cells: 48.4±4.1%
Kidney T cells [2]; post-ischemic kidneys, vehicle 61.4±10.7, P=0.001
  CD44+ among kidney CD8+ T cells: 40.9±11.2%
Kidney T cells [2]; post-ischemic kidneys, vehicle 67.5±1.7, P<0.001
  CD44+ among kidney CD4+ T cells: 56.3±1.9%
Kidney T cells [2]; post-ischemic kidneys, vehicle 78.7±3.0, P=0.001
  Ki67+ among kidney DN T cells: 91.2±1.1%
Kidney T cells [2]; post-ischemic kidneys, vehicle 94.4±2.4, P=0.038
  CD44+ among kidney DN T cells: 96.4±1.2%
Kidney T cells [2]; [3]
  levels of the other metabolic enzymes in kidney T cells: comparable between groups
  proportions of CD4+, CD8+, DN T cells among total T cells and Tregs among CD4+ T cells: comparable between groups
Kidney T cells [2]; post-ischemic kidneys, vs vehicle-treated mice
  pS6 and HKII expression in kidney T cells: enhanced
Kidney T cells [2]; vs vehicle
  number of total T cells in post-ischemic kidneys: reduced
